Data: paper PMC10484568 (Chemical communications (Cambridge, England), 2019)
≈ marks a conversion by molar mass, not a printed value. Where a SMILES comes first, the peptide text is derived from it. Bridges are numbered along the chain shown (N, C = ends). [ ]: non-standard residue; d: D form. The star is where a group is joined. X1 = CC[C@H](C)CCCCC(=O)*; Dab = NCC[C@H](N)C(=O)O

Tests used:
Type in all cases: cell-based
MRSA = system: MRSA
MRSE = system: MRSE
E. coli = system: E. coli
P. aeruginosa = system: P. aeruginosa
Hemolytic activity = assay: Hemolytic activity

CC[C@H](C)CCCCC(=O)N[C@@H](CCN)C(=O)N[C@H](C(=O)N[C@@H](CCN)C(=O)N[C@H]1CCNC(=O)[C@H]([C@@H](C)O)NC(=O)[C@H](CCN)NC(=O)[C@H](CCN)NC(=O)[C@H](CC(C)C)NC(=O)[C@@H](CC(C)C)NC(=O)[C@H](CCN)NC1=O)[C@@H](C)O [Colistin, colistin] (X1-[Dab]T[Dab][Dab][Dab][dL]L[Dab][Dab]T; lactam 4-C (inferred); N-terminus assumed)
Activity against MRSA (in words) (MRSA): not active
MIC MRSA (Gram positive) (MRSA; multidrug resistant strain): >50 mg/L
MIC MRSE (Gram positive) (MRSE): > 50 mg/L
MIC E. coli (Gram negative) (E. coli): 0.5 mg/L (≈ 0.428 µM)
MIC P. aeruginosa (Gram negative) (P. aeruginosa): 0.5 mg/L (≈ 0.428 µM)
HC50 (Hemolytic activity): > 250 µg/mL
